Measured values: paper PMC4494927, “Discovery of a small molecule targeting SET-PP2A interaction to overcome BCR-ABLT315I mutation of chronic myeloid leukemia” (Oncotarget, 2015)

Key:
[1] = tested on: BCR-ABL; experiment: Western blot of BCR-ABL expression in K562 cells; type: cell-based, human
Procedure: Protein samples (40 μg) were resolved on SDS-PAGE gels, transferred onto PVDF membranes (Millipore) and incubated overnight with primary antibodies to β-tubulin, BCR-ABL, p-BCR-ABL, SET, PP2Ac and p-PP2Ac. The membranes were incubated with horseradish peroxidase (HRP)-conjugated secondary antibody for 1 h, and the bands were visualized using an ECL detection kit following the manufacturer's instructions. For immunoprecipitation, cells were lysed in 20 mM Tris-HCl (pH 7.0), 150 mM NaCl, 1 mM EDTA, 1 mM MgCl and 0.5% NP-40 supplemented with a cocktail of protease and phosphatase inhibitors (Roche). Lysates (200 μg) were incubated with primary antibodies (1 μg) against SET or PP2Ac at 4 °C for 10 h, protein A/G plus agarose beads were then added for immunoprecipitation overnight at 4 °C. After wash, the immunoprecipitated proteins were separated by SDS-PAGE and analyzed by Western blotting.

[2] = tested on: K562 cells; experiment: Cytotoxicity assay (CellTiter-Glo); type: cell-based, human
Procedure: Twenty types of tumor cell lines were seeded at 4000 cells per well in 96-well plates. […] Cell viability was measured with the CellTiter-Glo Luminescent Cell Viability Assay (Promega) according to the manufacturer's instructions. Luminescence was measured using an EnVision Multilabel Plate Reader (Perkin-Elmer). The cytotoxicity of TGI1002 was expressed as the percentage of luminescence relative to that of untreated cells.

[3] = molecular target: T1, recombinant human SET protein (Homo sapiens, UniProt Q01105); experiment: Microscale thermophoresis (MST) binding to NT647-labeled SET; conditions: 15 μM NT647-labeled SET, PBS pH 8.0, 25 °C
T1 construct: Genes encoding the full length of human SET (GenBank No.: AAA60318.1) was synthesized; made in house; host or cells: E. coli (pET-21a)
Procedure: Thermophoresis analysis was performed during 30 s on a NanoTemper Monolith NT.115 instrument (20% LED, 40% MST power) at 25 °C.

[4] = tested on: BaF3-p210^T315I cells; experiment: Survival study, intravenously injected tumor cells; type: in vivo, BALB/c mice; conditions: vehicle 25.5 days
Procedure: In survival study, BaF3-p210^T315I cells were injected into the tail vein of BALB/c mice (100 μL of a 1 × 10^7 cells suspension in serum free medium). […] Moribund animals were sacrificed as per institutional and national guidelines. Survival data were analyzed by the Kaplan Meier method and compared using the log-rank test.

[5] = tested on: PP2A; experiment: PP2Ac immunoprecipitation phosphatase assay in K562 cells; type: cell-based, human
Procedure: PP2A assay from whole cell lysates was carried out using commercial PP2Ac immunoprecipitation phosphatase assay kit (Millipore). Briefly, 200 μg protein lysates prepared as described above, 4 μg PP2Ac-specific antibody, and 40 μL protein A-agarose were added to TBS buffer (20 mM Tris-HCl, 150 mM NaCl, and 0.1% Tween 20) to a final volume of 500 μL and immunoprecipitation was carried out at 4 °C for 2 h. The immunoprecipitates were used in the phosphatase reaction following the manufacturer's protocol.

[6] = tested on: BaF3-p210^T315I tumor xenografts; experiment: In vivo anti-tumor efficacy, subcutaneous xenograft; design: species or system BALB/c mice; conditions: TGI1002 30, 45, 60 mg/kg; imatinib, ponatinib 10 mg/kg; i.p. daily
Procedure: BABL/c male mice from SLRC Experimental Animal Center were bred under pathogen-free conditions and were used for experiments at 6-8 weeks of age. Animal experiments were performed according to institutional and national guidelines. BaF3-p210^T315I cells were implanted subcutaneously into the right flank of nude mice (200 μL of a 1 × 10^7cells suspension in serum free medium). When tumors became large enough for caliper measurement, tumor volumes were calculated as (length × width^2) × 0.5. […] At the end of the experiments, tumors were dissected and photographed, and wet weights of each tumor were measured.

[7] = molecular target: T2, recombinant human SET protein in full length (human, UniProt Q01105-2 1-277, labeled with RED fluorescent dye NT-647-NHS); experiment: MST; serial dilutions of the peptide (up to 2 mM) mixed with 15 μM NT647-labeled SET protein, 10 min at room temperature, 20 mM PBS pH 8.0, 25 °C, Monolith NT.115 (20% LED, 40% MST power); conditions: both partners purified
T2 construct: human SET, full length, gene synthesized after GenBank AAA60318.1 and subcloned into pET-21a; also called SET oncoprotein; NT647-labeled SET protein
T2 sequence (Q01105 other isoform, or with tags, fused parts or gaps): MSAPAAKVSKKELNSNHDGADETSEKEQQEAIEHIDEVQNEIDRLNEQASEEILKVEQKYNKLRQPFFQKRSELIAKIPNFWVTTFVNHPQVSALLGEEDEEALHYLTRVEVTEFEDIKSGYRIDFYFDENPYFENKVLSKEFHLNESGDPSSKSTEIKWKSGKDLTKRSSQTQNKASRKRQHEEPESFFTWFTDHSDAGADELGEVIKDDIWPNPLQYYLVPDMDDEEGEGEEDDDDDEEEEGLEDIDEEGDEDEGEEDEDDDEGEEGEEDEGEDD

T1 sequence (Q01105 1-277 isoform Q01105-2): as the sequence (Q01105 other isoform, or with tags, fused parts or gaps) above

Molecule: CO[C@H]1/C=C\C=C(/C)C(=O)NC2=CC(=O)C(NCCN(C)C)=C(C[C@@H](C)C[C@H](OC)[C@H](O)[C@@H](C)/C=C(\C)[C@@H]1OC(N)=O)C2=O [17-DMAG, reference compound]
- expression level of BCR-ABL [1]: significantly degraded

Molecule: Cc1ccc(NC(=O)c2cccc(CN3CCN(CC(=O)O)CC3)c2)cc1Oc1nccc(-c2cccnc2)n1 [TGI1002-COOH]
- cytotoxicity compared to the parent compound TGI1002 [2]: comparable cytotoxicity

Molecule: Cc1ccc(NC(=O)c2ccc(CN3CCN(C)CC3)cc2)cc1Nc1nccc(-c2cccnc2)n1 [imatinib, reference compound]
- Kd value [3]: did not bind SET to give a meaningful Kd value
- median survival ([4]; 10 mg/kg i.p. once daily from day 5): 25 days

Molecule: C=C1[C@@H](O)[C@@H]2O[C@]3(CC[C@H](/C=C/[C@@H](C)[C@@H]4CC(C)=C[C@@]5(O[C@H](C[C@@](C)(O)C(=O)O)CC[C@H]5O)O4)O3)CC[C@H]2O[C@@H]1[C@@H](O)C[C@H](C)[C@H]1O[C@@]2(CCCCO2)CC[C@H]1C [okadaic acid, reference compound]
- PP2A activity compared to control [5]: decreased significantly

Molecule: Cc1ccc(C(=O)Nc2ccc(CN3CCN(C)CC3)c(C(F)(F)F)c2)cc1C#Cc1cnc2cccnn12 [ponatinib, reference compound]
- final tumor volume and weight compared to vehicle group [6]: markedly lower
- median survival [4]: 37 days

B1: ApoE-mimetic peptide COG112 (peptide)
peptide: Ac-LRVRLASHLRKLRKRLL-NH2
notes: source: synthetic peptide (ChinaPeptides Co., Ltd, > 95% purity)
- Kd [7]: 4.4 ± 0.39 µM
